This is an account of results in PMC7998250, “Temperate Zone Plant Natural Products—A Novel Resource for Activity against Tropical Parasitic Diseases” (Pharmaceuticals, 2021).

The test system of assay [1] is WT L. mexicana procyclic promastigotes. In words: EC50 in WT L. mexicana promastigotes. The settings on record: Leishmania mexicana, read-out: EC50 in WT promastigotes. The class given is cell-based. As to the method:
A 700022-resistant line of L. mexicana (r22) was generated using a previously reported method (Figure S3). […] All leishmanicidal sterols identified were assayed against r22 after 8 weeks of 700022 pressure and cross-resistance was found against all four compounds, each with a similar resistance index of between 4–5 (Figure 6c). Following 28 weeks of selection, the morphology of the r22 promastigotes was compared to that of WT (Figure 6d). […] The body area of both promastigotes and amastigotes was also assessed, noting a small (c 20%) decrease in the body area of r22 parasites compared to WT strains (Figure S3).
L. mexicana parasites were grown in increasing concentrations of 700022 in a stepwise manner, as previously described. […] A dose response assay of the newly selected promastigotes was completed as stated above, with the exception of the seeding density of 1 × 10^5 cells/mL. At this point, the drug pressure was increased to the concentration of the new EC50 value.

The subject of assay [2] is L. mexicana intramacrophage amastigotes. In words: L. mexicana intramacrophage assay (NanoLuc PEST strain in THP-1). The class given is cell-based, Leishmania mexicana. The source says: Figure S4: Leishmania intramacrophage assays. […] Data represents the mean and standard deviation (n=4). B Average number of parasites per macrophage in the same experiment as A. A Kruskal-Wallis test followed by Dunn’s multiple comparison test was used to determine a significant difference (p<0.05) of each treatment to the untreated control and have been indicated with those being significant marked with an asterix. C Comparing 700022 activity between axenic amastigotes (red) and intramacrophage amastigotes (blue). Concentration–response curves for compound 700022 against: intracellular L. mexicana NanoLuc-PEST-transgenic line (blue), axenic amastigotes of NanoLuc-PEST-transgenic line (red) as well as the human cell lines HepG2 (green) and THP-1 (black). The data for the intracellular L. mexicana NanoLuc-PEST-transgenic line represent one biological repeat of three technical repeats.

[3] abbreviates: factor, relative to intramacrophage amastigote EC50.

In general, EC50 refers to the concentration that produces a half-maximal response.

Structures are written as SMILES.

For the molecule `CC1=CC(O)(CC(C)C2(C)CC=C3C4=CCC5C(C)(C)C(O)CCC5(C)C4CCC32C)OC1=O` (stereo not shown) [Compound 700022], the EC50 in assay [1] was 11.5 µM; in assay [2] (Leishmania mexicana, L. mexicana NanoLuc PEST strain in THP-1) it was 10.7 µM. Also, the “selectivity over HepG2” value in assay [2] (setting [3]) stood at 2.7. Besides, in assay [2] (setting [3]), the “selectivity over THP-1” value was determined as 1.6.
